Laboratory results as given in US20250387424A1, “PHARMACEUTICAL COMPOSITION COMPRISING A3 ADENOSINE RECEPTOR AGONIST FOR TREATMENT OF PSORIASIS” (CAN-FITE BIOPHARMA LTD., priority 2022, published 2025).

What was measured:
[1] = tested on: patients with moderate to severe plaque psoriasis; experiment: COMFORT-1 phase 3 trial, safety (TEAEs, ECG); settings: for serious TEAE (number): not considered drug related; for tolerability: 32-week study period
From the text: The COMFORT-1 study was a phase 3 multicenter (with sites in Bosnia, Bulgaria, Canada, Israel, Moldova, Poland, Romania, and Serbia) randomized, double-blind, controlled clinical trial in moderate-to-severe plaque psoriasis (ClinicalTrials.gov identifier: NCT03168256). […] Eligible patients were randomly assigned to these arms in a 3:3:3:2 ratio. Blinding was maintained using a double-dummy technique. The second segment (Weeks 16-32) included 3 treatment arms, as at Week 16, the patients in the placebo arm were re-randomized to piclidenoson 2 mg BID, piclidenoson 3 mg BID, or apremilast (dose-titrated over 6 days to 30 mg BID) in a 1:1:1 ratio and treated through Week 32. Those originally assigned to piclidenoson or apremilast remained on their initially assigned treatment through Week 32. Blinding was maintained through Week 32. Patients were evaluated every 2 weeks for efficacy and safety.
Safety assessments included treatment emergent adverse events (TEAEs) and changes in vital signs, physical examination, clinical laboratory tests (liver, kidney, hematology, chemistry, and urinalysis), and electrocardiogramdings.
Overall, 4 analysis populations were defined: The safety population included all patients who received ≥1 dose of piclidenoson; the intent-to-treat (ITT) population included all those in the safety population with at least one PASI score recorded post-BL and excluded patients who withdrew prior to Week 16 due to COVID-19-related study suspension; the modified ITT (mITT) population, which was used for the Week 16 efficacy analyses, included all ITT patients except one patient in the placebo arm who was excluded due to major protocol violations that were not captured in the original data; and lastly, the per protocol (PP) population, which was used for the Week 32 analyses, and included all ITT patients who had no major protocol violations on or before Week 16 and who completed Week 16 of the study. Exclusion from the PP population was finalized prior to any unblinded analyses. The analyses conducted for Week 32 were performed separately for patients who were initially randomized to piclidenoson or apremilast and for those who were initially randomized to the placebo group.
Descriptive statistics were used to summarize patient characteristics and safety. […] If a patient had more than one TEAE with the same PT, the patient was counted once.

[2] = tested on: patients with moderate to severe plaque psoriasis; experiment: COMFORT-1 phase 3 trial, efficacy (PASI, PGA2, PDI); format: in vivo, human
[3] = COMFORT-1 phase 3 trial, pharmacokinetics (Cmax, AUC); format: in vivo, human; settings: 2 mg BID arm compared with 3 mg BID arm; Weeks 0, 8, 16
Protocol: The trial had 2 segments (FIG. 1). […] Blinding was maintained through Week 32.
The primary endpoints included the proportion of patients achieving PASI 75 in the piclidenoson 2 mg and 3 mg BID arms vs. placebo at Week 16 (superiority) and safety. Secondary endpoints at Week 16 compared the piclidenoson arms to placebo and included the proportion of patients achieving PASI 50, the proportion of patients achieving a score of 0 or 1 in PGA2 (a PASI-based measure calculated using the intensity grading of components of the PASI score; specifically, it is the average of the PASI erythema, infiltration, and desquamation scores) [Gordon, K. B. et al. N Engl J Med 373, 136-144 (2015)], and the proportion of patients experiencing an improvement from BL in Psoriasis Disability Index (PDI). Additional secondary endpoints were evaluated at Week 32 and compared the piclidenoson arms to apremilast. These included the proportion of patients achieving PASI 75, PASI 50, PGA2 of 0 or 1, and the proportion of patients experiencing an improvement from BL in PDI. PK analysis, including calculating the peak concentration of the drug in the bloodstream after administration (Cmax), was conducted for Weeks 0, 8, and 16.

[4] = apremilast 30 mg BID, Weeks 0-32, safety population N = 177
[5] = apremilast 30 mg BID, Week 32, PP population
[6] = piclidenoson 2 mg BID, Weeks 0-32, safety population N = 179
[7] = piclidenoson 3 mg BID, Weeks 0-32, safety population N = 173

With `CCOc1cc([C@@H](CS(C)(=O)=O)N2C(=O)c3cccc(NC(C)=O)c3C2=O)ccc1OC` [Apremilast, apremilast, reference compound] the “Incidence of TEAE: GI disorders: Any” value [1, 4] was 7.3%, the “Incidence of TEAE: Nervous system: Any” value [1, 4] was 9.6% and the “serious TEAE (number)” value ([1]; apremilast 30 mg BID, pneumonia) was 1. The “patients who withdrew from the study due to TEAEs” value (from here on “patients who withdrew”) ([1]; apremilast arm, Weeks 0-32) was 1, the “patients achieving improvement from baseline in PDI (number/arm total)” value [2, 5] was 59/108 and the “proportion of patients achieving PASI 50” value [2, 5] was 25.2%. For the same molecule, the “proportion of patients achieving improvement from BL in PDI” value (from here on “proportion … in PDI”) [2, 5] was 55.1%, the “proportion of patients with PGA2 of 0 or 1” value (“proportion … of 0 or 1” below) [2, 5] was 24.3% and the “proportion of patients achieving PASI 75” value ([2]; apremilast 30 mg BID, Week 32, PP population, initially randomized to active treatment) was 26.2%.

With `CNC(=O)[C@H]1O[C@@H](n2cnc3c(NCc4cccc(I)c4)ncnc32)[C@H](O)[C@@H]1O` [Piclidenoson, methyl 1-[N^6-(3-iodobenzyl)-adenin-9-yl]-β-D-ribofuronamide] the “exposure as measured by both Cmax and AUC” value [3] was “similar”, the safety profile ([1]; 3 mg dose of piclidenoson) was “excellent and better than apremilast” and the “safety profile compared with placebo” value ([1]; both piclidenoson dosages, placebo used only Week 0 through Week 16) was “generally comparable to that of placebo”. For the same molecule, the “safety profile compared with apremilast” value ([1]; piclidenoson 2 mg BID and 3 mg BID) was “more favorable than that of apremilast”, the “patients who withdrew” value ([1]; piclidenoson 2 mg BID arm, Weeks 0-32) was 2 and the tolerability ([1]; piclidenoson 2 mg BID) was “well-tolerated”. The “Incidence of TEAE: GI disorders: Any” value [1, 6] was 2.8%, the “Incidence of TEAE: Infections/infestations: Nasopharyngitis” value [1, 6] was 2.2% and the “Incidence of TEAE: Infections/infestations: Urinary tract infection” value [1, 6] was 3.4%. For the same molecule, the “Incidence of TEAE: Nervous system: Any” value [1, 6] was 1.7%, the “serious TEAE (number)” value ([1]; piclidenoson 2 mg BID, arterial embolism) was 1 and the “patients who withdrew” value ([1]; piclidenoson 3 mg BID arm, Weeks 0-32) was 5. The tolerability ([1]; piclidenoson 3 mg BID) was “well-tolerated”, the “Incidence of TEAE: GI disorders: Any” value [1, 7] was 1.2% and the “Incidence of TEAE: Infections/infestations: Nasopharyngitis” value [1, 7] was 2.9%. The “Incidence of TEAE: Nervous system: Any” value [1, 7] was 1.7%, the “serious TEAE (number)” value ([1]; piclidenoson 3 mg BID, osteomyelitis) was 1 and the “proportion of patients achieving PGA2 (0 or 1)” value ([2]; piclidenoson 2 mg BID, Week 16, mITT population, p=0.027 vs placebo) was 11.8%±2.8%. The “proportion of patients achieving PASI 50” value ([2]; piclidenoson 2 mg BID, Week 16, mITT population, p=0.060 vs placebo) was 26.0%, the “proportion of patients achieving PASI 75” value ([2]; piclidenoson 2 mg BID, Week 16, mITT population, p=0.075 vs placebo) was 7.9%±2.4% and the “proportion of patients achieving PDI improvement from BL” value ([2]; piclidenoson 2 mg BID, Week 16, mITT population, p=0.70 vs placebo) was 63.3%. The “proportion of patients achieving PASI 75” value ([2]; piclidenoson 2 mg BID, Week 32, PP population, initially randomized to active treatment, noninferiority vs apremilast p=0.429) was 20.8%, the “proportion … of 0 or 1” value ([2]; piclidenoson 2 mg BID, Week 32, PP population, noninferiority vs apremilast p=0.417) was 18.9% and the “proportion … in PDI” value ([2]; piclidenoson 2 mg BID, Week 32, PP population, noninferiority vs apremilast p=0.66) was 48.1%. For the same molecule, the “proportion of patients achieving PASI 50” value ([2]; piclidenoson 2 mg BID, Week 32, PP population, noninferiority vs apremilast p=0.75) was 17.0%, the “proportion of patients achieving PASI 75” value ([2]; piclidenoson 3 mg BID, Week 16, mITT population, p=0.037 vs placebo) was 9.7%±1.8% and the “proportion of patients achieving PASI 75” value ([2]; piclidenoson 3 mg BID, Week 16, mITT population, p=0.037 vs placebo, listed as piclidenoson) was 9.7%. The “proportion of patients achieving PGA2 (0 or 1)” value ([2]; piclidenoson 3 mg BID, Week 16, mITT population, p=0.068 vs placebo) was 10.7%±3.0%, the “proportion of patients achieving PASI 50” value ([2]; piclidenoson 3 mg BID, Week 16, mITT population, p=0.475 vs placebo) was 19.4% and the “proportion of patients achieving PDI improvement from BL” value ([2]; piclidenoson 3 mg BID, Week 16, mITT population, p=1.00 vs placebo) was 58.3%. For the same molecule, the “patients achieving improvement from baseline in PDI (number/arm total)” value ([2]; piclidenoson 3 mg BID, Week 32, PP population) was 51/88, the “proportion of patients achieving PASI 75” value ([2]; piclidenoson 3 mg BID, Week 32, PP population, initially randomized to active treatment, noninferiority vs apremilast p=0.881) was 17.0% and the “proportion … in PDI” value ([2]; piclidenoson 3 mg BID, Week 32, PP population, noninferiority vs apremilast p=0.072) was 58.0%. For the same molecule, the “proportion of patients achieving PASI 50” value ([2]; piclidenoson 3 mg BID, Week 32, PP population, noninferiority vs apremilast p=0.49) was 19.3% and the “proportion … of 0 or 1” value ([2]; piclidenoson 3 mg BID, Week 32, PP population, noninferiority vs apremilast p=0.777) was 15.9%.
